Activity calls are given as the source filed them. No cut-off for these calls is given here.
Key:
Type in all cases: functional
[1] = system: OVCAR-3; assay: Growth inhibition of human OVCAR3 cells by sulforhodamine B assay
[2] = system: NCI-H522; assay: Growth inhibition of human NCI-H522 cells assessed as cell growth at 10^-4 M by sulforhodamine B assay; conditions: read-out: Activity
[3] = system: Hs-578T; assay: Growth inhibition of human Hs 578T cells assessed as growth inhibition at 10 uM by sulforhodamine B assay
[4] = system: NCI-H23; assay: Growth inhibition of human NCI-H23 cells by sulforhodamine B assay
[5] = system: PC-3; assay: Growth inhibition of human PC3 cells assessed as cell growth at 10^-4 M by sulforhodamine B assay; conditions: read-out: Activity
[6] = system: HOP-92; assay: Growth inhibition of human HOP92 cells assessed as cell growth at 10^-8 M by sulforhodamine B assay; conditions: read-out: Activity
[7] = Growth inhibition of human NCI-ADR-RES cells by sulforhodamine B assay
[8] = system: ACHN; assay: Growth inhibition of human ACHN cells assessed as cell growth at 10^-8 M by sulforhodamine B assay; conditions: read-out: Activity
[9] = system: CCRF-CEM; assay: Growth inhibition of human CCRF-CEM cells by sulforhodamine B assay
[10] = system: SN12C; assay: Growth inhibition of human SN12C cells assessed as cell growth at 10^-4 M by sulforhodamine B assay; conditions: read-out: Activity
[11] = system: ACHN; assay: Growth inhibition of human ACHN cells assessed as cell growth at 10^-7 M by sulforhodamine B assay; conditions: read-out: Activity
[12] = system: SF-268; assay: Growth inhibition of human SF268 cells assessed as cell growth at 10^-4 M by sulforhodamine B assay; conditions: read-out: Activity
[13] = system: BT-549; assay: Growth inhibition of human BT549 cells assessed as cell growth at 10^-6 M by sulforhodamine B assay; conditions: read-out: Activity
[14] = system: IGROV-1; assay: Growth inhibition of human IGROV1 cells by sulforhodamine B assay
[15] = system: LOX IMVI; assay: Growth inhibition of human LOXIMVI cells assessed as cell growth at 10^-8 M by sulforhodamine B assay; conditions: read-out: Activity
[16] = system: SK-MEL-5; assay: Growth inhibition of human SK-MEL-5 cells assessed as cell growth at 10^-8 M by sulforhodamine B assay; conditions: read-out: Activity
[17] = Growth inhibition of human NCI-ADR-RES cells assessed as cell growth at 10^-8 M by sulforhodamine B assay; conditions: read-out: Activity
[18] = system: SK-MEL-2; assay: Growth inhibition of human SK-MEL-2 cells assessed as cell growth at 10^-4 M by sulforhodamine B assay; conditions: read-out: Activity
[19] = system: HOP-62; assay: Growth inhibition of human HOP62 cells assessed as cell growth at 10^-6 M by sulforhodamine B assay; conditions: read-out: Activity
[20] = system: UACC-257; assay: Growth inhibition of human UACC257 cells assessed as cell growth at 10^-7 M by sulforhodamine B assay; conditions: read-out: Activity
[21] = system: SK-MEL-28; assay: Growth inhibition of human SK-MEL-28 cells assessed as cell growth at 10^-7 M by sulforhodamine B assay; conditions: read-out: Activity
[22] = system: SR; assay: Growth inhibition of human SR cells assessed as cell growth at 10^-6 M by sulforhodamine B assay; conditions: read-out: Activity
[23] = Growth inhibition of human Hs 578T cells by sulforhodamine B assay
[24] = system: Malme-3M; assay: Growth inhibition of human MALME-3M cells assessed as cell growth at 10^-4 M by sulforhodamine B assay; conditions: read-out: Activity
[25] = system: NCI-H226; assay: Growth inhibition of human NCI-H226 cells assessed as cell growth at 10^-6 M by sulforhodamine B assay; conditions: read-out: Activity
[26] = system: RPMI-8226; assay: Growth inhibition of human RPMI8226 cells assessed as cell growth at 10^-8 M by sulforhodamine B assay; conditions: read-out: Activity
[27] = system: UACC-62; assay: Growth inhibition of human UACC62 cells by sulforhodamine B assay
[28] = system: A498; assay: Growth inhibition of human A498 cells assessed as cell growth at 10^-8 M by sulforhodamine B assay; conditions: read-out: Activity
[29] = system: 786-0; assay: Growth inhibition of human 786-0 cells assessed as cell growth at 10^-6 M by sulforhodamine B assay; conditions: read-out: Activity
[30] = system: HL-60(TB); assay: Growth inhibition of human HL-60(TB) cells by sulforhodamine B assay
[31] = system: MOLT-4; assay: Growth inhibition of human MOLT4 cells assessed as cell growth at 10^-6 M by sulforhodamine B assay; conditions: read-out: Activity
[32] = system: KM12; assay: Growth inhibition of human KM12 cells assessed as cell growth at 10^-6 M by sulforhodamine B assay; conditions: read-out: Activity
[33] = read-out: LC50 (the source's name)
[34] = read-out: pLC50 (the source's name) (converted)

C/C=C(/C)C(=O)O[C@@H]1CC(C)(C)C[C@H]2C3=CC[C@@H]4[C@@]5(C)CC[C@H](O)C(C)(C)[C@@H]5CC[C@@]4(C)[C@]3(C)CC[C@@]12C(=O)O [Reduced Lantadene A]
GI50 ([1]; read-out: GI50): 1.95 µM
TGI ([1]; read-out: TGI): 3.61 µM
GI50 ([1]; read-out: pGI50 (converted)): 1.95 µM
TGI ([1]; read-out: pTGI (converted)): 3.63 µM
growth at 100 µM [2]: -66%
growth inhibition (GI) [3]: Active
GI50 ([4]; read-out: GI50): 2.39 µM
CC50 [4, 33]: 91.2 µM
TGI ([4]; read-out: TGI): 5.93 µM
GI50 ([4]; read-out: pGI50 (converted)): 2.4 µM
CC50 [4, 34]: 91.2 µM
TGI ([4]; read-out: pTGI (converted)): 5.89 µM
growth at 100 µM [5]: -73%
growth at 0.01 µM [6]: 91%
GI50 ([7]; read-out: GI50): 2.17 µM
CC50 [7, 33]: > 100 µM
TGI ([7]; read-out: TGI): 5 µM
GI50 ([7]; read-out: pGI50 (converted)): 2.19 µM
CC50 [7, 34]: > 100 µM
TGI ([7]; read-out: pTGI (converted)): 5.01 µM
growth at 0.01 µM [8]: 105%
GI50 ([9]; read-out: GI50): 2.31 µM
CC50 [9, 33]: > 100 µM
TGI ([9]; read-out: TGI): 6.52 µM
GI50 ([9]; read-out: pGI50 (converted)): 2.29 µM
CC50 [9, 34]: > 100 µM
TGI ([9]; read-out: pTGI (converted)): 6.46 µM
growth at 100 µM [10]: -51%
growth at 0.1 µM [11]: 101%
growth at 100 µM [12]: -34%
growth at 1 µM [13]: 95%
GI50 ([14]; read-out: GI50): 2.32 µM
CC50 [14, 33]: 9.24 µM
TGI ([14]; read-out: TGI): 4.63 µM
GI50 ([14]; read-out: pGI50 (converted)): 2.29 µM
CC50 [14, 34]: 9.33 µM
TGI ([14]; read-out: pTGI (converted)): 4.68 µM
growth at 0.01 µM [15]: 97%
growth at 0.01 µM [16]: 95%
growth at 0.01 µM [17]: 102%
growth at 100 µM [18]: -71%
growth at 1 µM [19]: 99%
growth at 0.1 µM [20]: 88%
growth at 0.1 µM [21]: 88%
growth at 1 µM [22]: 89%
GI50 ([23]; read-out: GI50): 2.13 µM
CC50 [23, 33]: > 100 µM
TGI ([23]; read-out: TGI): 5.21 µM
GI50 ([23]; read-out: pGI50 (converted)): 2.14 µM
CC50 [23, 34]: > 100 µM
TGI ([23]; read-out: pTGI (converted)): 5.25 µM
growth at 100 µM [24]: -62%
growth at 1 µM [25]: 83%
growth at 0.01 µM [26]: 96%
GI50 ([27]; read-out: GI50): 1.56 µM
CC50 [27, 33]: 7.83 µM
TGI ([27]; read-out: TGI): 3.5 µM
GI50 ([27]; read-out: pGI50 (converted)): 1.55 µM
CC50 [27, 34]: 7.76 µM
TGI ([27]; read-out: pTGI (converted)): 3.47 µM
growth at 0.01 µM [28]: 79%
growth at 1 µM [29]: 97%
GI50 ([30]; read-out: GI50): 2.19 µM
CC50 [30, 33]: > 100 µM
TGI ([30]; read-out: TGI): 4.9 µM
GI50 ([30]; read-out: pGI50 (converted)): 2.19 µM
CC50 [30, 34]: > 100 µM
TGI ([30]; read-out: pTGI (converted)): 4.9 µM
growth at 1 µM [31]: 89%
growth at 1 µM [32]: 69%
